System: TNFα-Freisetzung
Test: Inhibition of TNFα release after LPS stimulation of human whole blood (ELISA)
Assay type: cell-based
Details: human whole blood diluted 1:5 with RPMI 1640; LPS (Salmonella abortus equi) 1 µg/ml; 24 h at 37°C; TNFα in supernatant by ELISA; read-out: EC50 Hemmung der TNFα-Freisetzung
Excerpt: Methodenbeschreibung der Hemmung der TNFα Freisetzung nach LPS Stimulation von humanem Vollblut
Die Stimulierung isolierter Leukozyten für die Freisetzung von Zytokinen kann auf verschiedenen Wegen erfolgen. Lipopolysaccharide (LPS) stellen einen Stimulus für die Untersuchung der Freisetzung von TNFα dar. LPS ist Bestandteil bakterieller Zellwände und wird beim Abtöten der Bakterien (durch Antibiotika oder das natürliche Immunsystem) freigesetzt. LPS stimuliert insbesondere die Aktivität phagozytierender Leukozyten (Gewebsmakrophagen, Granulozyten, Monozyten) und verursacht die Infiltration von Leukozyten vom peripheren Blut in das betroffene Gewebe. Ein Zytokin von besonderer Bedeutung für diese Mechanismen ist TNFα, das in großen Mengen durch die betroffenen Zellen sezemiert wird. Hauptquelle dabei sind Monozyten und Makrophagen. TNFα initiiert und prolongiert den Entzündungsprozess im Zusammenspiel mit anderen Mediatoren.
Für die Untersuchung des Effektes auf die LPS-induzierte TNFα-Freisetzung wurde eine Methode verwendet, die von MARX et al. (Marx D, Tassabehji M, Heer S, Hüttenbrink KB, Szelenyi I (2002) Pulmonary Pharmacology & Therapeutics 15 7-15) beschrieben wurde. Die Methodenbeschreibung in verkürzter Darstellung: Humanes Blut verschiedener Spendern wird durch Zusatz von 10 mM Na-Citrat ungerinnbar gemacht und 1:5 mit RPMI 1640 Zellkulturmedium verdünnt. Die Verbindungen der allgemeinen Formel 1 sowie die Kontrollsubstanzen (z.B. Dexamethason) wurden den Blutproben in verschiedenen Konzentrationen hinzugefügt. 15 Minuten später wurden die Leukozyten durch Zusatz von Lipopolysacchariden (LPS) (aus Salmonella abortus equi) in einer Endkonzentration von 1 µg/ml stimuliert. Nach Inkubation der Testansätze für 24 Stunden bei 37°C. und unter 5% CO2 in wassergesättigter Luft, wurde das Blut zentrifugiert und die Konzentration an TNFα im zellfreien Überstand unter Verwendung eines käuflichen ELISA (BD Biosciences) nach Angaben des Herstellers exakt vermessen.

EC50, < 1 nM:
NC(=O)c1sc2nc(-c3ccc4ccccc4c3)cc(C(F)(F)F)c2c1N [Beispiel 5, 3-Amino-6-(2-naphthyl)-4-trifluormethyl-thieno[2,3-b]pyridin-2-carbonsäureamid]
NC(=O)c1sc2nc(-c3ccc(Cl)cc3)cc(C(F)(F)F)c2c1N [Beispiel 14, 3-Amino-6-(4-chlor-phenyl)-4-trifluormethyl-thieno[2,3-b]pyridin-2-carbonsäureamid]
Cc1ccc(-c2cc(C(F)F)c3c(N)c(C(N)=O)sc3n2)cc1 [Beispiel 1, 3-Amino-4-difluormethyl-6-(4-methyl-phenyl)thieno[2,3-b]pyridin-2-carbonsäureamid]
COc1ccc(-c2cc(C(F)(F)F)c3c(N)c(C(N)=O)sc3n2)cc1 [Beispiel 12, 3-Amino-6-(4-methoxy-phenyl)-4-trifluormethyl-thieno[2,3-b]pyridin-2-carbonsäureamid]
CCOc1ccc(-c2cc(C(F)(F)F)c3c(N)c(C(N)=O)sc3n2)cc1 [Beispiel 13, 3-Amino-6-(4-ethoxy-phenyl)-4-trifluormethyl-thieno[2,3-b]pyridin-2-carbonsäureamid]
NC(=O)c1sc2nc(-c3ccccc3)cc(C(F)(F)F)c2c1N [Beispiel 6, 3-Amino-6-phenyl-4-trifluormethyl-thieno[2,3-b]pyridin-2-carbonsäureamid]
NC(=O)c1sc2nc(-c3ccc4c(c3)OCO4)cc(C(F)(F)F)c2c1N [Beispiel 18, 3-Amino-6-(3,4-dioxomethylen-phenyl)-4-trifluormethyl-thieno[2,3-b]pyridin-2-carbonsäureamid]
Cc1ccc(-c2cc(C(F)(F)F)c3c(N)c(C(N)=O)sc3n2)cc1 [Beispiel 7, 3-Amino-6-(4-methyl-phenyl)-4-trifluormethyl-thieno[2,3-b]pyridin-2-carbonsäureamid]
Cc1ccc(-c2cc(C(F)(F)F)c3c(N)c(C(N)=O)sc3n2)cc1C [Beispiel 16, 3-Amino-6-(3,4-dimethyl-phenyl)-4-trifluormethyl-thieno[2,3-b]pyridin-2-carbonsäureamid]
NC(=O)c1sc2nc(-c3ccc(Br)cc3)cc(C(F)(F)F)c2c1N [Beispiel 15, 3-Amino-6-(4-brom-phenyl)-4-trifluormethyl-thieno[2,3-b]pyridin-2-carbonsäureamid]
CC(C)c1ccc(-c2cc(C(F)(F)F)c3c(N)c(C(N)=O)sc3n2)cc1 [Beispiel 10, 3-Amino-6-(4-isopropyl-phenyl)-4-trifluormethyl-thieno[2,3-b]pyridin-2-carbonsäureamid]
NC(=O)c1sc2nc(-c3cccs3)cc(C(F)(F)F)c2c1N [Beispiel 2, 3-Amino-6-(2-thienyl)-4-trifluormethyl-thieno[2,3-b]pyridin-2-carbonsäureamid]
NC(=O)c1sc2nc(-c3ccc4c(c3)OCCO4)cc(C(F)(F)F)c2c1N [3-Amino-6-(3,4-dioxoethylen-phenyl)-4-trifluormethyl-thieno[2,3-b]pyridin-2-carbonsäureamid]
CCc1ccc(-c2cc(C(F)(F)F)c3c(N)c(C(N)=O)sc3n2)cc1 [Beispiel 8, 3-Amino-6-(4-ethyl-phenyl)-4-trifluormethyl-thieno[2,3-b]pyridin-2-carbonsäureamid]
CCCc1ccc(-c2cc(C(F)(F)F)c3c(N)c(C(N)=O)sc3n2)cc1 [Beispiel 9, 3-Amino-6-(4-propyl-phenyl)-4-trifluormethyl-thieno[2,3-b]pyridin-2-carbonsäureamid]
NC(=O)c1sc2nc(-c3ccc(F)cc3)cc(C(F)(F)F)c2c1N [Beispiel 22, 3-Amino-6-(4-fluor-phenyl)-4-trifluormethyl-thieno[2,3-b]pyridin-2-carbonsäureamid]
CSc1ccc(-c2cc(C(F)(F)F)c3c(N)c(C(N)=O)sc3n2)cc1 [3-Amino-6-(4-methylthio-phenyl)-4-trifluormethyl-thieno[2,3-b]pyridin-2-carbonsäureamid]
